Key:
Type in all cases: in vivo
transplanted rice = test: Test Example 1: preemergent weed treatment in the submerged state, effect on crop; a: transplanted rice
Source text: (§1) Weedkilling efficacy test on preemergent weed treatment in the submerged state
(§2) Alluvial soil was introduced into 1/10,000 Are Wagner pots, and 4 cm depth submerged conditions were created by addition of water and mixing. Seeds of barnyard grass, bulrush and oval-leafed pondweed were mixed and sown into the aforesaid cups, then 2.5 leaf stage rice seedlings were transplanted. On the sowing day, emulsions of compounds of the present invention prepared according to compounding example 2 were diluted with water to give the specified dosages and applied onto the water surface. The plants were grown after placing the cups in a greenhouse at 25 to 30° C. 3 weeks after the pesticide treatment the effect on each type of plant was investigated on the basis of the following assessment criteria.
(§3) A: barnyard grass, B: bulrush, C: oval-leafed pondweed, D: crabgrass, E: green foxtail, F: barnyard grass, G: wild oat, H: black-grass, I: Italian ryegrass, J: common wind-grass, K: Indian mallow, L: redroot pigweed, M: fig-leafed goosefoot, N: chickweed, O: catchweed, p: birds-eye speedwell, a: transplanted rice, b: directly sown rice, c: corn, d: soybean, e: wheat, f: beet, g: rapeseed
(§4) Further, pesticide dosage (g/ha) indicates the concentration regulated such that treatment was with only the stated number of grams (g), when calculated per hectare (ha).

oval-leafed pondweed [1] = test: Test Example 2: weedkilling efficacy, growth period weed treatment in the submerged state; C: oval-leafed pondweed
Experimental: (§5) Weedkilling efficacy test on growth period weed treatment in the submerged state
as §2, with “and the plants were grown by placing in a greenhouse at 25 to 30° C. When the barnyard grass, bulrush and oval-leafed pondweed had reached the 1-2” for “then 2.5”, “stage,” for “stage rice seedlings were transplanted. On the sowing day,”, “surface.” for “surface. The plants were grown after placing the cups in a greenhouse at 25 to 30° C.”, “the” for “the following”, “criteria of test example 1.” for “criteria.”
as §3, §4

bulrush [2] = test: Test Example 2: weedkilling efficacy, growth period weed treatment in the submerged state; B: bulrush
Experimental: as §5
as §2, with “and the plants were grown by placing in a greenhouse at 25 to 30° C. When the barnyard grass, bulrush and oval-leafed pondweed had reached the 1-2” for “then 2.5”, “stage,” for “stage rice seedlings were transplanted. On the sowing day,”, “surface.” for “surface. The plants were grown after placing the cups in a greenhouse at 25 to 30° C.”, “the” for “the following”, “criteria of test example 1.” for “criteria.”
as §3, §4

barnyard grass [3] = test: Test Example 1: weedkilling efficacy, preemergent weed treatment in the submerged state; A: barnyard grass
Source text: as §1, §2, §3, §4

bulrush [4] = test: Test Example 1: weedkilling efficacy, preemergent weed treatment in the submerged state; B: bulrush
Source text: as §1, §2, §3, §4

barnyard grass [5] = test: Test Example 2: weedkilling efficacy, growth period weed treatment in the submerged state; A: barnyard grass
Experimental: as §5
as §2, with “and the plants were grown by placing in a greenhouse at 25 to 30° C. When the barnyard grass, bulrush and oval-leafed pondweed had reached the 1-2” for “then 2.5”, “stage,” for “stage rice seedlings were transplanted. On the sowing day,”, “surface.” for “surface. The plants were grown after placing the cups in a greenhouse at 25 to 30° C.”, “the” for “the following”, “criteria of test example 1.” for “criteria.”
as §3, §4

oval-leafed pondweed [6] = test: Test Example 1: weedkilling efficacy, preemergent weed treatment in the submerged state; C: oval-leafed pondweed
Source text: as §1, §2, §3, §4

Row | Structure (SMILES) | a: transplanted rice, effect on crop grade (transplanted rice; treatment dosage 320 g/ha) | C (oval-leafed pondweed) weedkilling efficacy grade (oval-leafed pondweed [1]; treatment dosage 320 g/ha) | B (bulrush) weedkilling efficacy grade (bulrush [2]; treatment dosage 320 g/ha) | A: barnyard grass, weed kill grade (barnyard grass [3]; treatment dosage 320 g/ha) | B: bulrush, weed kill grade (bulrush [4]; treatment dosage 320 g/ha) | A (barnyard grass) weedkilling efficacy grade (barnyard grass [5]; treatment dosage 320 g/ha) | C: oval-leafed pondweed, weed kill grade (oval-leafed pondweed [6]; treatment dosage 320 g/ha) | a: transplanted rice, effect on crop grade (transplanted rice; treatment dosage 252 g/ha) | C (oval-leafed pondweed) weedkilling efficacy grade (oval-leafed pondweed [1]; treatment dosage 252 g/ha) | B (bulrush) weedkilling efficacy grade (bulrush [2]; treatment dosage 252 g/ha) | A: barnyard grass, weed kill grade (barnyard grass [3]; treatment dosage 252 g/ha) | B: bulrush, weed kill grade (bulrush [4]; treatment dosage 252 g/ha) | A (barnyard grass) weedkilling efficacy grade (barnyard grass [5]; treatment dosage 252 g/ha) | C: oval-leafed pondweed, weed kill grade (oval-leafed pondweed [6]; treatment dosage 252 g/ha) | further results
1 | CC(C)(C(=O)Nc1cc(Cl)cc(Cl)n1)N1COCN(c2ccccc2)C1=S [A-2-18] | 0 (weed kill ratio 5% or less (practically no effect)) | 5 (weed kill ratio 90% or more, (practically complete withering)) | 5 (weed kill ratio 90% or more, (practically complete withering)) | 5 (weed kill ratio 90% or more, (practically complete withering)) | 5 (weed kill ratio 90% or more, (practically complete withering)) | 5 (weed kill ratio 90% or more, (practically complete withering)) | 5 (weed kill ratio 90% or more, (practically complete withering)) | – | – | – | – | – | – | – | –
2 | CC(C)(C(=O)Nc1cccc(C(F)F)n1)N1COCN(c2ccccc2)C1=O [A-2-41] | – | – | – | – | – | – | – | – | – | – | – | – | – | – | a: transplanted rice, effect on crop grade (transplanted rice; treatment dosage 315 g/ha): 0 (weed kill ratio 5% or less (practically no effect)); C (oval-leafed pondweed) weedkilling efficacy grade (oval-leafed pondweed [1]; treatment dosage 315 g/ha): 5 (weed kill ratio 90% or more, (practically complete withering)); B (bulrush) weedkilling efficacy grade (bulrush [2]; treatment dosage 315 g/ha): 5 (weed kill ratio 90% or more, (practically complete withering)); A: barnyard grass, weed kill grade (barnyard grass [3]; treatment dosage 315 g/ha): 5 (weed kill ratio 90% or more, (practically complete withering)); B: bulrush, weed kill grade (bulrush [4]; treatment dosage 315 g/ha): 5 (weed kill ratio 90% or more, (practically complete withering)); A (barnyard grass) weedkilling efficacy grade (barnyard grass [5]; treatment dosage 315 g/ha): 5 (weed kill ratio 90% or more, (practically complete withering)); C: oval-leafed pondweed, weed kill grade (oval-leafed pondweed [6]; treatment dosage 315 g/ha): 5 (weed kill ratio 90% or more, (practically complete withering))
3 | CC(C)(C(=O)Nc1cc(C(F)(F)F)ccn1)N1COCN(c2ccccc2)C1=O [A-2-42] | – | – | – | – | – | – | – | 4 (weed kill ratio 70% or more, less than 90%) | 5 (weed kill ratio 90% or more, (practically complete withering)) | 5 (weed kill ratio 90% or more, (practically complete withering)) | 5 (weed kill ratio 90% or more, (practically complete withering)) | 5 (weed kill ratio 90% or more, (practically complete withering)) | 5 (weed kill ratio 90% or more, (practically complete withering)) | 5 (weed kill ratio 90% or more, (practically complete withering)) | –
4 | CC(C)(C(=O)Nc1ccc(C(F)(F)F)cn1)N1COCN(c2ccccc2)C1=O [A-2-43] | 0 (weed kill ratio 5% or less (practically no effect)) | 2 (weed kill ratio 20% or more, less than 40%) | 4 (weed kill ratio 70% or more, less than 90%) | 3 (weed kill ratio 40% or more, less than 70%) | 5 (weed kill ratio 90% or more, (practically complete withering)) | 2 (weed kill ratio 20% or more, less than 40%) | 5 (weed kill ratio 90% or more, (practically complete withering)) | – | – | – | – | – | – | – | –
5 | CC(C)(C(=O)Nc1cccc(C(F)(F)F)n1)N1COCN(c2ccccc2)C1=O [A-2-44] | – | – | – | – | – | – | – | 0 (weed kill ratio 5% or less (practically no effect)) | 1 (weed kill ratio 5% or more, less than 20%) | 5 (weed kill ratio 90% or more, (practically complete withering)) | 5 (weed kill ratio 90% or more, (practically complete withering)) | 5 (weed kill ratio 90% or more, (practically complete withering)) | 3 (weed kill ratio 40% or more, less than 70%) | 4 (weed kill ratio 70% or more, less than 90%) | –

From patent publication US9738634B2, “Heterocyclic amide compound and herbicide” (SYNGENTA PARTICIPATIONS AG, priority 2013, dated 2017)
